This passage reports Ki results from ChEMBL document CHEMBL3217537, “The importance of solvation in the design of ligands targeting membrane proteins” (Medchemcomm, 2011).

Structures are written as SMILES.

For the assay, the target named is 5-hydroxytryptamine receptor 4 (Rattus norvegicus, UniProt Q62758). The experiment in a line: Displacement of [3H]GR113808 from 5-HT4 receptor in rat striatal membranes after 30 mins by liquid scintillation spectrometric analysis. The assay is classed as cell membranes, Striatum, Membrane.
Chain of 5-hydroxytryptamine receptor 4 (Q62758 whole entry): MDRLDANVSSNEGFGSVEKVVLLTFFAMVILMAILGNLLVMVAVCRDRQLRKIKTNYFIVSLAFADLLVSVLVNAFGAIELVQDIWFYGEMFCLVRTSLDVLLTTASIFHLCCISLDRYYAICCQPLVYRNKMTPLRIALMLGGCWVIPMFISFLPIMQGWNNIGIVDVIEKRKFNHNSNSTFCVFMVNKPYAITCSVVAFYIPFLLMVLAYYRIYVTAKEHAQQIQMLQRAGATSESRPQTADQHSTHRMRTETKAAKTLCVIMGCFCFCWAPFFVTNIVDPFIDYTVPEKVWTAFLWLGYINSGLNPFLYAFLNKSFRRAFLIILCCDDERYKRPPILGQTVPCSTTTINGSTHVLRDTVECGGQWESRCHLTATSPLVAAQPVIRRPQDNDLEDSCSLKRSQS

Consider `CCCCN1CCC(CNC(=S)c2cccc3[nH]cnc23)CC1`, for which affinity was put at a Ki of 0.15 nM.
The figure for `CCCCN1CCC(CNC(=S)c2cc(Cl)cc3[nH]cnc23)CC1` is 0.081 nM.
